Values quoted from earlier work as cited in patent publication US20200101019A1, “USE OF LIPOSOMES FOR TREATMENT OF CHRONIC VIRAL HEPATITIS B” (JIANGSU MENDEL GENE TECHNOLOGY CO., LTD, priority 2017, published 2020).

Tested on: Hepatitis B virus (HBV)
Details: AASLD Guidelines for Treatment of Chronic Hepatitis B, Hepatology 2016

| SMILES | HBeAg/anti-HBe seroconversion rate after treatment with other drugs [%] |
| --- | --- |
| Nc1ncnc2c1ncn2CCOCP(=O)(O)O [Adefovir] | 12 |
| C=C1[C@H](CO)[C@@H](O)C[C@@H]1n1cnc2c(=O)[nH]c(N)nc21 [Entecavir] | 21 |
